Source: patent US5773459A, “Urea- and thiourea-type compounds” (Sugen, Inc., priority 1995, dated 1998)
Where two headings read alike, the source gives them in different places.

Tests used:
Format in all cases: cell-based
[1] = biological target: T1, IGF-1R (Homo sapiens, UniProt P08069); test: Cellular IGF-1 Receptor ELISA
T1 construct: expressed in transfected cells; host or cells: 3T3/IGF-1R
Experimental: Cellular IGF-1 Receptor ELISA (Version I)
(1). The cell line used in this assay is 3T3/IGF-1R, a cell line which overexpresses IGF-1 Receptor.
(2). 3T3/IGF-1 R is grown in an incubator with 5% CO2 at 37° C. The growth media is DMEM+10% FBS (heat inactivated)+2 mM L-Glutamine.
(3). For ELISA plate coating, the anti-IGF-1 R antibody named 17-69 is used. Antibodies are purified by the Enzymology Lab, SUGEN, Inc.
(10). Insulin-like growth factor-1 from Promega (Cat# G5111).
(2). […] Incubate for 1 day then replace medium to serum-free medium (90/ul) and incubate in 5% CO2 and 37° C. overnight.
(§1) 2. ELISA Plate Coating and Blocking
(§2) (2). Remove the coating solution, and replace with 100 ul Blocking Buffer, and shake for 30 minutes. Remove the blocking buffer and wash the plate just before adding lysate.
(§3) (1). The drugs are tested in serum-free condition.
(2). Dilute drug stock (in 100% DMSO) 1:10 with DMEM in 96-well poly-propylene plate, and transfer 10 ul/well of this solution to the cells to achieve final drug dilution 1:100, and final DMSO concentration of 1.0%. Incubate the cells in 5% CO2 at 37° C for 2 hours.
(3). Prepare fresh cell lysis buffer (HNTG HNTG 2 ml EDTA 0.1 ml Na3VO4 0.1 ml Na4P207 0.1 ml H20 7.3 ml HNTG* 10 ml.
(4). After drug incubation for two hours, transfer 10 ul/well of 200 nM IGF-1 Ligand in PBS to the cells (Final Conc=20 nM), and incubate at 5% CO2 at 37° C. for 10 minutes.
(5). Remove media and add 100 ul/well HNTG* and shake for 10 minutes. Look at cells under microscope to see if they are adequately lysed.
(§4) (6). Use a 12-channel pipette to scrape the cells from the plate, and homogenize the lysate by repeat aspiration and dispense. Transfer all the lysate to the antibody coated ELISA plate [V.2.(2)], and shake for 1 hour.
(§5) (7). Remove the lysate, wash the plate, transfer anti-pTyr (1:3,000 with TBST) 100 ul/well, and shake for 30 minutes.
(7). Remove anti-pTyr, wash the plate, transfer detection antibody (1:3,000 with TBST) 100 ul/well, and shake for 30 minutes.
(8). Remove detection antibody, wash the plate, and transfer fresh ABTS/H2O2 (1.2 ul H2O2 to 10 ml ABTS) 100 ul/well to the plate to start color development.
(9). Measure OD (410 nm) in Dynatec MR5000, which is connected to Ingres.

[2] = biological target: T2, Insulin Receptor (Homo sapiens, UniProt P06213); test: Cellular Insulin Receptor ELISA
T2 construct: host or cells: H25 (NIH3T3)
Experimental: Cellular Insulin Receptor ELISA (Version I)
The following protocol describes the cell line, reagents and procedures used to measure phosphotyrosine level on Insulin Receptor, which indicates Insulin Receptor tyrosine kinase activity.
(2). H25 cells are grown in an incubator with 5% CO2 at 37° C. The growth media is DMEM+10% FBS (heat inactivated)+2 mM L-Glutamine.
(3). For ELISA plate coating, the monoclonal anti-IR antibody named BBE is used. Antibodies are purified by the Enzymology Lab, SUGEN, Inc.
(2). […] Incubate for 1 day then replace medium to 0.01% serum medium (90/ul) and incubate in 5% CO2 and 37° C. overnight.
as §1, §2, §3
(2). Dilute drug stock (in 100% DMSO) 1:10 with DMEM in 96-well poly-propylene plate, and transfer 10 ul/well of this solution to the cells to achieve final drug dilution 1:100, and final DMSO concentration of 1.0%. Incubate the cells in 5% CO2 at 37° C. for 2 hours.
(3). Prepare fresh cell lysis buffer (HNTG*) HNTG 2 ml EDTA 0.1 ml Na3VO4 0.1 ml Na4P2O7 0.1 ml H20 7.3 ml HNTG* 10 ml.
(4). After drug incubation for two hours, transfer 10 ul/well of 1 μM Insulin in PBS to the cells (Final Conc=100 nM), and incubate at 5% CO2 at 37° C. for 10 minutes.
(5). Remove media and add 100ul/well HNTG* and shake for 10 minutes. Look at cells under microscope to see if they are adequately lysed.
as §4, §5
(8). Remove anti-pTyr, wash the plate, transfer detection antibody (1:3,000 with TBST) 100 ul/well, and shake for 30 minutes.
(9). […]

[3] = system: MCF7 human breast carcinoma cells; test: MCF-7 SRB Growth Assay; settings: read-out: GROWTH DATA: MCF7 10% FBS
Source text: The following examples illustrate the ability of the exemplary compounds to inhibit receptor tyrosine kinases, such as HER2 and/or EGFR. The following target cells were used for cellular kinase assays: NIH3T3 clone C7 (Honegger et al., supra) engineered to over-express human EGF receptor; NIH3T3 cells engineered to over-express a chimeric receptor containing the EGFR extracellular domain and the HER2 intracellular kinase domain; the human mammary carcinoma line BT474 (ATCC HTB2) expressing HER2; and the human glioblastoma line U1242 that expresses PDGFR-beta. Growth assays were carried out using human mammary epithelial SKBR3 (ATCC HTB30) cells (SKBR3 cells over-express HER2), SKOV3 (ATCC HTB77) human ovarian cancer cell line (SKOV3 cells also over-express HER2), A431 cells (A431 cells over-express EGFR) MCF7 human breast carcinoma cells, MCF7 cells overexpressing the HER2 kinase (MCF7-HER2), NIH3T3 cells, and NIH3T3 cells overexpressing the HER2 kinase (3T3-HER2.
MCF-7 cells are seeded at 2000 cells/ well in a 96-well flat bottom plate in normal growth media, which was 10% FBS/RPMI supplemented with 2 mM Glutamine. The plate of cells is incubated for about 24 hours at 37° C. after which it receives an equal volume of compound dilution per well making the total volume per well 200 μl. The compound is prepared at 2 times the desired highest final concentration and serially diluted in the normal growth media in a 96-well round bottom plate and then transferred to plate of cells. DMSO serves as the vector control up to 0.2% as final concentration. The cells are then incubated at 37° C. in a humidified 5% CO2 incubator.
Four days following dosing of compound, the media is 15 discarded and 200 μl/well of ice-cold 10% TCA (Trichloroacetic Acid) is added to fix cells. After 60 minutes at 4° C., the TCA is discarded and the plate is rinsed 5 times with water. The plate is then air-dried and 100 μl/well of 0.4% SRB (Sulforhodamine B from Sigma) 20 in 1% Acetic Acid is added to stain cells for 10 minutes at room temperature. The SRB is discarded and the plate is rinsed 5 times with 1% Acetic Acid. After the plate is completely dried, 100 μl/well of 10 mM Tris-base is added to solubilize the dye. After 5 to 10 minutes, the plate is read on a Dynatech ELISA Plate Reader at dual wavelengths at 570 nm and 630 nm.

[4] = 3T3/IGF-1R cells, IGF-1 stimulated, read-out: ELISA DATA: IGF-1R
[5] = H25 cells (NIH3T3 overexpressing Insulin Receptor), insulin stimulated, read-out: ELISA DATA: IR

T2 sequence (P06213 28-1382, species assumed): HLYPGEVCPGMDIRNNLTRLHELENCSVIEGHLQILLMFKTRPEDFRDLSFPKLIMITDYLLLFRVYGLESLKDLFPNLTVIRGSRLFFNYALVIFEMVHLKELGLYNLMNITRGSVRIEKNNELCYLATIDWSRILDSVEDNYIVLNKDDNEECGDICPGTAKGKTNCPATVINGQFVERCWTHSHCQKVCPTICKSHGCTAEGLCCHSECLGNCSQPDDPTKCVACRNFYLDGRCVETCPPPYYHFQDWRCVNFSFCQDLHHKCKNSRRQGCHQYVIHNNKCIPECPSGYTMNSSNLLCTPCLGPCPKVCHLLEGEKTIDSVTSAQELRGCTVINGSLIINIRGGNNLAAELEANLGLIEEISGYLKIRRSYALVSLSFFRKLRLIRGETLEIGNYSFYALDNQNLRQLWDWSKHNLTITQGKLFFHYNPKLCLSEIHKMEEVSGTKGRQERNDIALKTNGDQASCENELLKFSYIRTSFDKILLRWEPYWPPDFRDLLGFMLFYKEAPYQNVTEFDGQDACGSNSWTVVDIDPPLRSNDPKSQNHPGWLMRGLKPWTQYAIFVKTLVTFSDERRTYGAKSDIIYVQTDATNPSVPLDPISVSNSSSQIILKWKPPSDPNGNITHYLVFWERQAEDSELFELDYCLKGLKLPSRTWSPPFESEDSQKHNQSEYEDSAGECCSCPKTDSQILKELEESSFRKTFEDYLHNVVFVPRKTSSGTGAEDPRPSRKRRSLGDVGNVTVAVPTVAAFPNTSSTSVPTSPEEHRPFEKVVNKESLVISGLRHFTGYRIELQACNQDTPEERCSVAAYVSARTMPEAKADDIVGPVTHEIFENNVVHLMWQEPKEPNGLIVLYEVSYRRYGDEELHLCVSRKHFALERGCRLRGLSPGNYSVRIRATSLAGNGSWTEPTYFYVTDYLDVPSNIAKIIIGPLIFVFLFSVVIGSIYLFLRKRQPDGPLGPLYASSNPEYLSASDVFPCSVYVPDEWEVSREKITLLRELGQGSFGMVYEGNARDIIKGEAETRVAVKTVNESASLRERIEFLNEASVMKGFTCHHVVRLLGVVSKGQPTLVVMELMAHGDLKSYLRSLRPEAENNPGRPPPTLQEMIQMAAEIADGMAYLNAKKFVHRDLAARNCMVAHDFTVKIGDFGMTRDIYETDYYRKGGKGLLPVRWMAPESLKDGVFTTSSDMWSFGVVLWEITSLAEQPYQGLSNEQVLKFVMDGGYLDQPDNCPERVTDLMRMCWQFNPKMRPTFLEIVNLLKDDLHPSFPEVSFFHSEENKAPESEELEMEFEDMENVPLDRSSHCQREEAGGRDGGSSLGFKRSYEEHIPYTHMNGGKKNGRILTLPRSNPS
T1 sequence (P08069 31-1367): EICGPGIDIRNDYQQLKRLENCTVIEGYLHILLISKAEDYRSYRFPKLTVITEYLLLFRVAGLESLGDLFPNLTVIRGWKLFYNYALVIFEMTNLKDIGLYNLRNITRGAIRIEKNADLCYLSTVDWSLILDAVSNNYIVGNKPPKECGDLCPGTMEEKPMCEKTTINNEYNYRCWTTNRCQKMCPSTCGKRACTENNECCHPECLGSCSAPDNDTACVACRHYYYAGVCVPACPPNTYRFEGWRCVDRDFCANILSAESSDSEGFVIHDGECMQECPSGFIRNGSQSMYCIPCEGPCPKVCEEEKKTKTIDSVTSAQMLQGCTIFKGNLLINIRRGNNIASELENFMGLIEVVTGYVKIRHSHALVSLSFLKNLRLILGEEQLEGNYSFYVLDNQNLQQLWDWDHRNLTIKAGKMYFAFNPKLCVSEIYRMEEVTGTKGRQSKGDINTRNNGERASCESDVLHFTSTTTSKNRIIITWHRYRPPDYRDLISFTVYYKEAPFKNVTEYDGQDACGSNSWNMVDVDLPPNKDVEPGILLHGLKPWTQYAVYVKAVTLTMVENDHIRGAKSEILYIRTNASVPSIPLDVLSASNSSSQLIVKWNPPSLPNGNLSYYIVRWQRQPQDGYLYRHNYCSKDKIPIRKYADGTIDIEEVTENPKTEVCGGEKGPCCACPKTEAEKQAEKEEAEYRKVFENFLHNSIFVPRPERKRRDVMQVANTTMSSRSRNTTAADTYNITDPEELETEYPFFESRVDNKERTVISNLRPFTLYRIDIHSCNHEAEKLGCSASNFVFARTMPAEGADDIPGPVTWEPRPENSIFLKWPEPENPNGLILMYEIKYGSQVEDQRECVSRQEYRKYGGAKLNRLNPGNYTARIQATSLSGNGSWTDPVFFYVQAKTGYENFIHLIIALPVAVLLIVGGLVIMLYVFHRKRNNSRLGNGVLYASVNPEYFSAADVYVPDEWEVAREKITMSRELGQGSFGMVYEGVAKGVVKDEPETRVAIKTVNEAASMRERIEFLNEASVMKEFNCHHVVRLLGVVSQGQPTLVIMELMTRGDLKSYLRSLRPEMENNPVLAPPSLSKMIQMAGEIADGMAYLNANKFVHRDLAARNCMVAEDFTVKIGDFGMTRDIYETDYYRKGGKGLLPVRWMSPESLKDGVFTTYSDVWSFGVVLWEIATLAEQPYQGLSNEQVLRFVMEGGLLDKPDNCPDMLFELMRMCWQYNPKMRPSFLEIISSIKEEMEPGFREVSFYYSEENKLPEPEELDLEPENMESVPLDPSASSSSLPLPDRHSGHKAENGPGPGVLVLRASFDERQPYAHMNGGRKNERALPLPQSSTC

| IC50 [1, 4] [µM] | IC50 [2, 5] [µM] | IC50 [3] [µM] | SMILES | IC50 [1] [µM] | IC50 [2] [µM] |
| --- | --- | --- | --- | --- | --- |
| > 100 | > 100 | 5 | CC(C)S(=O)(=O)c1csc(NC(=O)Nc2ccc(C(C)(C)C)cc2)c1Cl [Example Z1, N-[3-Chloro-4-(isopropylsulfonyl)thien-2-yl]-N'-(4-t-butylphenyl)urea] | – | – |
| > 100 | > 100 | 1 | CC(C)S(=O)(=O)c1csc(NC(=O)Nc2cc(C(F)(F)F)cc(C(F)(F)F)c2)c1Cl [Example Z2, N-[3-Chloro-4-(isopropylsulfonyl)thien-2-yl]-N'-(3,5-di-trifluoromethylphenyl)urea] | – | – |
| > 100 | – | 3 | N#Cc1ccc(NC(=S)Nc2ccc(S(=O)(=O)N3CCCCC3)cc2)cc1 [Example Z4, N-(4-Cyanophenyl)-N'-[4-[(piperid-1-yl)sulfonyl]phenyl]thiourea] | – | – |

| SMILES | IC50 [1, 4] [µM] | IC50 [2, 5] [µM] | IC50 [3] [µM] | IC50 [1] [µM] | IC50 [2] [µM] |
| --- | --- | --- | --- | --- | --- |
| O=C(Nc1ccc(SC(F)(F)F)cc1)Nc1ccc(Oc2ccc(Cl)cc2Cl)nc1 [Example Z3] | – | – | 2 | 16.5 | > 100 |
